Results from PubChem BioAssay AID651985 (The Scripps Research Institute Molecular Screening Center, 2013).
Activity calls are given as the source filed them. The rule behind the calls is not given here.

What was measured:
LYPLA1 = experiment: PubChem AID 651985; details: C57 mice dosed, tissue gel ABPP with NHU5 probe, stronger effect = higher value
LYPLA2 = experiment: PubChem AID 651985; details: C57 mice dosed, tissue gel ABPP with NHU5 probe, stronger effect = higher value

Question: How did the inhibition (LYPLA1; heart) turn out when `O=C(CN1CCN(C(=O)c2ccco2)CC1)Nc1cc(C(F)(F)F)ccc1Cl` was run?
Answer: Its inhibition is 100%.

Question: And the inhibition (LYPLA1)?
Answer: Its inhibition is 25%.

Question: What about the inhibition (LYPLA1; kidney) of the same molecule?
Answer: Its inhibition is 75%.

Question: And the inhibition (LYPLA1; liver)?
Answer: The inhibition was 0%.

Question: And the inhibition (LYPLA1; lung)?
Answer: The inhibition was 100%.

Question: And the inhibition (LYPLA2; heart)?
Answer: The inhibition was 0%.

Question: And the inhibition (LYPLA2)?
Answer: Its inhibition is 0% (inactive).

Question: And the inhibition (LYPLA2; kidney)?
Answer: Its inhibition is 0%.

Question: And the inhibition (LYPLA2; liver)?
Answer: Its inhibition is 0%.

Question: What about the inhibition (LYPLA2; lung) of the same molecule?
Answer: Its inhibition is 0%.

Question: How did the inhibition (LYPLA1; heart) turn out when `COc1ccc(N2CCN(C(=O)c3cc4c(s3)-c3ccccc3S(=O)(=O)C4)CC2)cc1` was run?
Answer: Its inhibition is 0%.

Question: What about the inhibition (LYPLA1) of the same molecule?
Answer: The inhibition was 0% (inactive).

Question: What about the inhibition (LYPLA1; kidney) of the same molecule?
Answer: Its inhibition is 0%.

Question: And the inhibition (LYPLA1; liver)?
Answer: The inhibition was 0%.

Question: What about the inhibition (LYPLA1; lung) of the same molecule?
Answer: The inhibition was 0%.

Question: What about the inhibition (LYPLA2; heart) of the same molecule?
Answer: The inhibition was 100%.

Question: What about the inhibition (LYPLA2) of the same molecule?
Answer: The inhibition was 50%.

Question: What about the inhibition (LYPLA2; kidney) of the same molecule?
Answer: Its inhibition is 75%.

Question: And the inhibition (LYPLA2; liver)?
Answer: The inhibition was 0%.

Question: And the inhibition (LYPLA2; lung)?
Answer: Its inhibition is 100%.
